Legend:
[1] = Example 7A: open-label single-dose pharmacokinetic study, modified-release tablet vs immediate-release capsule, fasted healthy subjects; format: in vivo, human
Experimental: A. An open-label, fixed sequence, non-randomized study in two cohorts of healthy male and non-pregnant, non-lactating female subjects was conducted. Two cohorts with twelve subjects in each were enrolled to ensure data in ten evaluable subjects per cohort.
Each subject in Cohort 1 received each of the following regimens, in the fasted state, in a sequential manner over four treatment periods: • Regimen A (0.03 mg immediate-release Compound 1): 1×0.03 mg Compound 1 immediate-release capsule. • Regimen B (0.06 mg modified-release Compound 1): 1×0.06 mg Compound 1 modified-release tablet as disclosed herein. • Regimen C (0.12 mg modified-release Compound 1): 2×0.06 mg Compound 1 modified-release tablets as disclosed herein. • Regimen D (0.18 mg modified-release Compound 1) 3×0.06 mg Compound 1 modified-release tablets as disclosed herein.
Subjects received each regimen in the morning of Day 1, following an overnight fast of a minimum of 8 hours. PK samples were taken from subjects at 72 hours post-dose. There was a minimum washout period of 7 days between each administration of investigational medicinal product (IMP) (i.e., selexipag film-coated tablet(s), Compound 1 immediate-release capsule(s), and/or Compound 1 modified-release tablet(s)).
Venous blood samples were withdrawn at regular time intervals. Plasma concentration data for Compound 1 and the selexipag parent and active metabolite were analyzed using appropriate non-compartmental techniques to obtain estimates of one or more of the following parameters:
One or more of the above pharmacokinetic parameters were determined at one or more of the following time points: pre-dose and (referring to hours after administration): 0.5, 1, 1.5, 2, 3, 4, 5, 6, 8, 10, 12, 16, 20, 24, 36, 48, and 72 hours.

[2] = Release (dissolution) profile of capsules, USP Apparatus 2 (paddle) at 50 rpm, 500 mL aqueous sodium phosphate 0.05 M, pH 6.8; format: physicochemical; conditions: for Release rate (percentage of Compound 1 released): Table 3b, capsule 0.04 mg Compound 1, Poloxamer 188:food grade GMS 50:50
Description: USP Apparatus 2 (Paddle Apparatus) is described, for example, in the United States Pharmacopeial Convention, Feb. 1, 2012, Chapter <711> (“Dissolution”), incorporated by reference herein in its entirety. See http://www.usp.org/sites/default/files/usp_pdf/EN/USPNF/revisions/m99470-gc_711.pdf. The assembly from Apparatus 1 is used, except that a paddle formed from a blade and a shaft is used as the stirring element. The shaft is positioned so that its axis is not more than 2 mm from the vertical axis of the vessel at any point and rotates smoothly without significant wobble that could affect the results. The vertical center line of the blade passes through the axis of the shaft so that the bottom of the blade is flush with the bottom of the shaft. A distance of 25±2 mm between the bottom of the blade and the inside bottom of the vessel is maintained during the test. The metallic or suitably inert, rigid blade and shaft comprise a single entity. A suitable two-part detachable design may be used provided the assembly remains firmly engaged during the test. The paddle blade and shaft may be coated with a suitable coating so as to make them inert. The dosage unit is allowed to sink to the bottom of the vessel before rotation of the blade is started. A small, loose piece of nonreactive material, such as not more than a few turns of wire helix, may be attached to dosage units that would otherwise float. Other validated sinker devices may be used.
Unless otherwise specified, the release profiles for capsules were measured using USP Apparatus 2 (paddle).
All release profiles disclosed in Tables 3c-3p were measured with USP Apparatus 2 (paddle) at 50 rpm in 500 mL of aqueous sodium phosphate at a concentration of 0.05 M (pH=6.8). The values in a given table relate to capsules obtained from the same batch. Values shown represent mean values over a number of dissolution tests (“n” in each table) in each case.

[3] = modified-release compared to immediate-release formulation
[4] = modified-release tablet (compared with immediate-release capsule)

Relative bioavailability based on individual dose-adjusted Cmax ([1]; 0.06, 0.12 and 0.18 mg modified-release tablet vs immediate-release capsule): statistically significantly lower
Relative bioavailability based on individual dose-adjusted ratios of AUC(0-last) ([1]; 0.06 and 0.12 mg modified-release tablet vs immediate-release capsule): statistically significantly lower
Dose-adjusted peak plasma exposure (Cmax/D), geometric mean ratio [1, 3]: 28.7-41.2%
Dose-adjusted total plasma exposure (AUC/D), geometric mean ratio [1, 3]: 63.3-97.9%
Cmax [1, 4]: reduced the Cmax
Tmax [1, 4]: increased Tmax
Plasma concentrations at 24 hours post-dose ([1]; modified-release tablet compared to immediate release-formulation): higher
change of release rate after storage ([2]; 0.04 mg Compound 1 in Gelucire 50/13, storage at 40° C. and 75% RH for two weeks (FIG. 5)): rapid increase in release rate
Release rate (percentage of Compound 1 released) ([2]; 1 wk storage (40° C.), 30 min): 11.1%
Release rate (percentage of Compound 1 released) ([2]; 1 wk storage (40° C.), 60 min): 22.6%
Release rate (percentage of Compound 1 released) ([2]; 1 wk storage (40° C.), 120 min): 40.1%
Release rate (percentage of Compound 1 released) ([2]; 1 wk storage (40° C.), 180 min): 59.7%
Release rate (percentage of Compound 1 released) ([2]; 1 wk storage (40° C.), 240 min): 71.8%
Release rate (percentage of Compound 1 released) ([2]; 1 wk storage (40° C.), 360 min): 88.4%
Release rate (percentage of Compound 1 released) ([2]; 1 wk storage (40° C.), 480 min): 92.2%
Release rate (percentage of Compound 1 released) ([2]; 1 wk storage (40° C.), 600 min): 96.7%
Release rate (percentage of Compound 1 released) ([2]; 1 wk storage (40° C.), 720 min): 95.3%
Release rate (percentage of Compound 1 released) ([2]; 1 wk storage (40° C.), 735 min): 96.1%
Release rate (percentage of Compound 1 released) ([2]; 2 wks storage (40° C.), 30 min): 10.8%
Release rate (percentage of Compound 1 released) ([2]; 2 wks storage (40° C.), 60 min): 18.3%
Release rate (percentage of Compound 1 released) ([2]; 2 wks storage (40° C.), 120 min): 36.8%
Release rate (percentage of Compound 1 released) ([2]; 2 wks storage (40° C.), 180 min): 52.9%
Release rate (percentage of Compound 1 released) ([2]; 2 wks storage (40° C.), 240 min): 67.4%
Release rate (percentage of Compound 1 released) ([2]; 2 wks storage (40° C.), 360 min): 83.3%
Release rate (percentage of Compound 1 released) ([2]; 2 wks storage (40° C.), 480 min): 90.3%
Release rate (percentage of Compound 1 released) ([2]; 2 wks storage (40° C.), 600 min): 93.8%
Release rate (percentage of Compound 1 released) ([2]; 2 wks storage (40° C.), 720 min): 93.7%
Release rate (percentage of Compound 1 released) ([2]; 2 wks storage (40° C.), 735 min): 94.3%
Release rate (percentage of Compound 1 released) ([2]; 4 wks storage (40° C.), 30 min): 7.3%
Release rate (percentage of Compound 1 released) ([2]; 4 wks storage (40° C.), 60 min): 17.7%
Release rate (percentage of Compound 1 released) ([2]; 4 wks storage (40° C.), 120 min): 37.4%
Release rate (percentage of Compound 1 released) ([2]; 4 wks storage (40° C.), 180 min): 54.6%
SMILES: O=C(O)COC[C@H]1CC[C@H](COC(=O)N(c2ccccc2)c2ccc(Cl)cc2)CC1 [Compound 1, 2-(((1r,4r)-4-(((4-chlorophenyl)(phenyl)carbamoyloxy)methyl)cyclohexyl)methoxy)acetic acid]
total plasma concentrations [1, 4]: substantially maintaining similar total plasma concentrations
Systemic exposure (Cmax and AUC), dose proportionality ([1]; oral modified-release tablet formulation): increased in a slightly higher than dose-proportional manner

— US12642771B2, “Compositions comprising PGI2-receptor agonists and processes for the preparation thereof” (Arena Pharmaceuticals, Inc., priority 2017, dated 2026)
